The numbers were not newly measured in patent US20040229940A1, “Analeptic and antidepressant combinations” (Cephalon Inc, priority 2003, published 2004), which cites them from elsewhere.

The subject of one data set is rats. Conditions: rats (Touret et al., 1995; Edgar and Seidel, 1997).
A further data set deals with cats. Conditions: cats (Lin et al., 1992).
In a further data set the test system is canines. Conditions: canines (Shelton et al., 1995).
A further data set concerns non-human primates. Conditions: non-human primates (Hernant et al, 1991).
The test system of data set [1] is English bulldog sleep disordered breathing model. Conditions: sleep apnea model, English bulldog (Panckeri et al, 1996).
For the next data set, the system named is narcoleptic canine. The conditions noted are these: narcolepsy model, narcoleptic canine (Shelton et al, 1995).
Data set [2] concerns major depressive disorder. Conditions: at 6 weeks.

With `NC(=O)C[S+]([O-])C(c1ccccc1)c1ccccc1` (stereo not shown) [Modafinil, 2-(benzhydrylsulfinyl) acetamide], the wakefulness entry (with rats; with cats; in the data set on canines; in the data set with non-human primates; in data set [1]; in the data set on narcoleptic canine) was “promotes wakefulness” each time.

As to `CNCCC(Oc1ccc(C(F)(F)F)cc1)c1ccccc1` (stereo not shown) [fluoxetine], the response entry in data set [2] was “about 50%”.
